Series [1] is described as follows: in vitro. The conditions noted are these: male, human, plasma, pH 7.8.
Description: Degarelix or 5‐Hyd‐degarelix test solutions (10 μL of 180 μg/mL degarelix or 5‐Aph(Hyd)‐degarelix in 20% acetonitrile) were each mixed with 890 μL of human plasma, Dulbecco buffer (5 mM NaH2PO4, 20 mM Na2HPO4, 5 mM KCl, 120 mM NaCl, adjusted to pH 7.4 with NaOH), 4.5% human serum albumin solution (HSA solution), and human serum albumin solution with 0.21 mg/mL warfarin: 3960 μL HSA solution +40 μL warfarin stock solution (21 mg warfarin in 1 mL water)to a final concentration of 2000 ng/mL of each analyte and 0.2% of acetonitrile. […] The samples were then diluted with 10 μL of the solution of 0.1% of formic acid in 20% acetonitrile and 70 μL of acetonitrile. The solutions were shaken and centrifuged. To 50 μL of the supernatant, 20 μL of water and 0.2% of formic acid were added and the solution was used for HPLC analysis. All the experiments were repeated three times.
The ANALYST software was used to integrate all peaks automatically by use of the IntelliQuan algorithm and to calculate the calibration curves of degarelix and 5‐Aph(Hyd)‐degarelix by linear regression with a weighting of 1/x ^2. The parameters for peak integrations were adapted for all samples in each analytical batch. The ANALYST software was used to calculate the concentrations of the test and QC samples based on the corresponding calibration curves.
Series [2] has as its system human serum albumin (HSA). The conditions noted are these: cited from earlier work. An excerpt:
After its approval by FDA in 2008, degarelix became the most widely used GnRH antagonist in patients with advanced prostate cancer.[17] The advantages of degarelix are its high affinity to the GnRH receptor, increased hydrophilicity, and decreased propensity to form gels. As a result, degarelix has better bioavailability than the previous GnRH antagonists. These improved characteristics are related to the presence of additional 4‐[(aminocarbonyl)amino]‐phenylalanine [Aph(Cbm)] and 4‐[(dihydroorotyl)amino]‐phenylalanine [Aph(Hor)] moieties, which afford multiple hydrogen‐bonding sites and permi ...

The conditions of series [3]: in vivo; cited from earlier work.
Series [4] concerns human cytochrome P450 system. The conditions noted are these: cited from earlier work.
Series [5] in a line: Stability in 4.5% human serum albumin (HSA) solution without warfarin. It counts as in vitro ADME. The conditions noted are these: 37°C, 2000 ng/mL, up to 48 h. An excerpt: (§1) The solutions were shaken and centrifuged. […] All the experiments were repeated three times.
Series [6] is described as follows: Stability in HSA solution with warfarin. In kind it is in vitro ADME, human. The conditions noted are these: 37°C, 2000 ng/mL, up to 48 h.
Description: as §1

Molecules are shown by their SMILES. Where a SMILES comes first, the peptide text is derived from it. [ ]: non-standard residue; d: D form. The star is where a group is joined. dPhe(4-NHCONH2) = NC(=O)Nc1ccc(C[C@@H](N)C(=O)O)cc1; Dihydroorotyl(S) = O=C1C[C@@H](C(=O)*)NC(=O)N1; dPhe(4-Cl) = N[C@H](Cc1ccc(Cl)cc1)C(=O)O; Phe(4-NH2) = Nc1ccc(C[C@H](N)C(=O)O)cc1; d2Nal = N[C@H](Cc1ccc2ccccc2c1)C(=O)O; Lys(iPr) = CC(C)NCCCC[C@H](N)C(=O)O; X1 = O=C1NC(=O)[C@H](CC(=O)*)N1; d3Pal = N[C@H](Cc1cccnc1)C(=O)O

Regarding `CC(=O)N[C@H](Cc1ccc2ccccc2c1)C(=O)N[C@H](Cc1ccc(Cl)cc1)C(=O)N[C@H](Cc1cccnc1)C(=O)N[C@@H](CO)C(=O)N[C@@H](Cc1ccc(NC(=O)[C@@H]2CC(=O)NC(=O)N2)cc1)C(=O)N[C@H](Cc1ccc(NC(N)=O)cc1)C(=O)N[C@@H](CC(C)C)C(=O)N[C@@H](CCCCNC(C)C)C(=O)N1CCC[C@H]1C(=O)N[C@H](C)C(N)=O` [degarelix] (Ac-[d2Nal][dPhe(4-Cl)][d3Pal]S[Phe(4-NH2)](Dihydroorotyl(S))[dPhe(4-NHCONH2)]L[Lys(iPr)]P[dA]-NH2), in series [1], the share remaining at 8 h, 2000 ng/mL was 104%; the fraction remaining at 24 h, 2000 ng/mL worked out at 92%; the fraction remaining at 32 h, 2000 ng/mL amounted to 91%; the share remaining at 48 h, 2000 ng/mL stood at 74%. For the same molecule, in series [2], the “Binding to human serum albumin (HSA)” value is listed as 76.3%. Moreover, the “Time to reach the maximum concentration in the blood” value in series [3] was 37 to 42 h. Besides, the “Substrate for the human cytochrome P450 system” value in series [4] is “not a substrate”.
Take `CC(=O)N[C@H](Cc1ccc2ccccc2c1)C(=O)N[C@H](Cc1ccc(Cl)cc1)C(=O)N[C@H](Cc1cccnc1)C(=O)N[C@@H](CO)C(=O)N[C@@H](Cc1ccc(NC(=O)C[C@@H]2NC(=O)NC2=O)cc1)C(=O)N[C@H](Cc1ccc(NC(N)=O)cc1)C(=O)N[C@@H](CC(C)C)C(=O)N[C@@H](CCCCNC(C)C)C(=O)N1CCC[C@H]1C(=O)N[C@H](C)C(N)=O` [5‐Aph(Hyd)‐degarelix] (Ac-[d2Nal][dPhe(4-Cl)][d3Pal]S[Phe(4-NH2)](X1)[dPhe(4-NHCONH2)]L[Lys(iPr)]P[dA]-NH2): in series [1], the amount remaining at 8 h, 2000 ng/mL was determined as 103%; the share remaining at 24 h, 2000 ng/mL stood at 93%; the share remaining at 32 h, 2000 ng/mL was determined as 91%; the amount remaining at 48 h, 2000 ng/mL amounted to 80%. Also, in series [5] (5-Aph(Hyd)-degarelix in 4.5% HSA solution without warfarin), the “Change in the 5-Aph(Hyd)-degarelix content” value was “we did not see any change”. Moreover, the “Formation of 5-Aph(Hyd)-degarelix from degarelix” value in series [5] (degarelix in 4.5% HSA solution without warfarin, HPLC-MS/MS) is on record as “No 5‐Aph(Hyd)‐degarelix was observed”. In addition, the “Change in the 5-Aph(Hyd)-degarelix content” value in series [6] (5-Aph(Hyd)-degarelix in HSA solution with warfarin) is given as “we did not see any change”. The “Formation of 5-Aph(Hyd)-degarelix from degarelix” value in series [6] (degarelix in 4.5% HSA solution with 0.21 mg/mL warfarin (equimolar to albumin), HPLC-MS/MS) is given as “No 5‐Aph(Hyd)‐degarelix was observed”.

Values taken from paper PMC10350552, “Investigation of the GnRH antagonist degarelix isomerization in biological matrices” (Pharmacology Research & Perspectives, 2023).
